Values quoted from earlier work, collected in patent publication US20100055036A1, “PET VISUALIZATION OF AMYLOID-ASSOCIATED NEUROINFLAMMATION IN THE BRAIN” (National Institute of Radiolotgical Sciences, priority 2007, published 2010).

Test system: amyloid plaque lesions in mouse brain
Conditions: mice developing abundant plaque lesions vs WT

SMILES: [11CH3]Nc1ccc(-c2nc3ccc(O)cc3s2)cc1 [[^11C]6-OH-BTA-1, N-[^11C]methyl-2-(4′-methylaminophenyl)-6-hydroxybenzothiazole]
- PET data in brains of plaque-bearing mice compared with wild-type mouse brains: virtually indistinguishable
